Experimental data taken from PMC7756582, “Prodrugs of γ‐Alkyl‐Modified Nucleoside Triphosphates: Improved Inhibition of HIV Reverse Transcriptase” (Angewandte Chemie (International Ed. in English), 2020).

Target: T1, human DNA polymerase γ (Homo sapiens, UniProt P54098)
T1 construct: purchased Roboklon
T1 sequence (P54098 1-1239): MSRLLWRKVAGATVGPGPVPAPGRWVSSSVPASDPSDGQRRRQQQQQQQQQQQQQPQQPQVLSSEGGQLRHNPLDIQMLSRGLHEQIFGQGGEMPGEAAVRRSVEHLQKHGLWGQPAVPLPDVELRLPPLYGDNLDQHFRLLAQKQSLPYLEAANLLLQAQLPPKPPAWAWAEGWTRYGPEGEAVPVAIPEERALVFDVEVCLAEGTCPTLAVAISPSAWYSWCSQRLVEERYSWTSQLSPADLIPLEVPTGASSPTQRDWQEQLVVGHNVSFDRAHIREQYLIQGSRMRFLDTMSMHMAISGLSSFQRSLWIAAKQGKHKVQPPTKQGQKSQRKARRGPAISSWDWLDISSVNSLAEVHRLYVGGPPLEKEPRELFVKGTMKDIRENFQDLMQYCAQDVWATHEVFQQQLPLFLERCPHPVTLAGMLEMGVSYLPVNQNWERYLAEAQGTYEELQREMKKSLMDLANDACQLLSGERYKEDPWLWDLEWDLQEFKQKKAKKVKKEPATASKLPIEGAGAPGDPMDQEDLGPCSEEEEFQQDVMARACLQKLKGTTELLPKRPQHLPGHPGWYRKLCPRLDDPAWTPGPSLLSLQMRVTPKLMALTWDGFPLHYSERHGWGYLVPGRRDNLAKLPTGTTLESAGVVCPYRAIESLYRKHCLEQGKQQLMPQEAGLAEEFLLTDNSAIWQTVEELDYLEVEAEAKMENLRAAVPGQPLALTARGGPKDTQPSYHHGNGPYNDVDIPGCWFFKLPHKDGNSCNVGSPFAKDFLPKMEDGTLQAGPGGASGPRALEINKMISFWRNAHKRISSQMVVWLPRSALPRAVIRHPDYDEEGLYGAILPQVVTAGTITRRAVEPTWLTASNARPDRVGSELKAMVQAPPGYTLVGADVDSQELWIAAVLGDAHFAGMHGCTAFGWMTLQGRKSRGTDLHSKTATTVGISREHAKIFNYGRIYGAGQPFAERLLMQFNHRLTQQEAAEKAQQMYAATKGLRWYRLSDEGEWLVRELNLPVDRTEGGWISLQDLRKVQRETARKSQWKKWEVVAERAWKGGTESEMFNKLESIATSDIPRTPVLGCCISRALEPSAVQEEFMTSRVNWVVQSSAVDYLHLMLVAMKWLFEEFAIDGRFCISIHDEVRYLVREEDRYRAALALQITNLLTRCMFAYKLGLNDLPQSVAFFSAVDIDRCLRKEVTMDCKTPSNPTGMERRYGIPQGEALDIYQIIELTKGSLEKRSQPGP
Assay: Primer extension assay with human DNA polymerase γ
Format: biochemical
Details: dNTPs 250 μM, Pol γ 4 U
Description: Two different set‐ups have been used. First, a mixture of dATP, dCTP, dGTP, and γ‐alkyl‐TTP (N*) or ‐d4TTP (T*) was used as a mixture. The results obtained from these experiments were compared to those in which just γ‐alkyl‐TTP (N) or d4TTP (T) was used. In each experiment a primer extension without added polymerase (negative control, ‐ lane) and an experiment in which all four canonical NTPs were added (positive control, +lane) were used as controls.
Anti-HIV activity assay: Inhibition of HIV-1(IIIB)- and HIV-2(ROD)-induced cytopathicity in wild-type CEM/0 and thymidine kinase-deficient CEM/TK- cell cultures was measured in microtiter 96-well plates containing ~3·105 CEM cells/mL infected with 100 CCID50 of HIV per milliliter and containing appropriate dilutions of the test compounds. After 4−5 days of incubation at 37 °C in a CO2-controlled humidified atmosphere, CEM giant (syncytium) cell formation was examined microscopically. The EC50 (50% effective concentration) was defined as the compound concentration required to inhibit HIV-induced giant cell formation by 50%. […]
2) For HIV- RT assay: The final assay solution (10 µL) consists of 50 mM Tris-HCl (pH 8.6 at 22 °C), 10 mM MgCl2, 40mM KCl, dNTPs 66 µM, HIV RT 6 U, Hybrid 0.32 µM in a reaction volume of 10 µL, incubated 37 °C for 15 min, 80 °C for 3 min; 50 mA, 45w for 4 h. […] The result was visualized by fluorescence imaging. […]

Cc1cn(C2C=CC(COP(=O)(O)OP(=O)(O)OP(=O)(O)O)O2)c(=O)[nH]c1=O (stereo not shown) [2 t, d4TTP, reference compound]
primer extension by DNA polymerase γ (substrate properties): not substrates
